Experimental data from patent publication US20070122802A1, “Methods of diagnosing and treating diabetes and insulin resistance” (priority 2002, published 2007).

Assays:
Format in all cases: in vivo, human
Ceramidase = test: Gene expression profiling (Affymetrix chips) of muscle from diabetics before/after troglitazone: ceramidase transcripts; details: Ceramidase mRNA, Clamp sample
Source text: (§1) The molecular mechanism by which thiazolidinediones (TZDs) cause an increase in peripheral insulin sensitivity was studied. Genes in muscle or fat whose expression is altered by TZDs may lie on a pathway leading from TZD treatment to increased insulin sensitivity. Modulators of such genes can elicit the same effect as TZD treatment. Moreover, such modulators can lack some of the side effects of TZD. The majority of glucose disposal occurs in muscle. For this reason, gene expression profiling in human muscle from diabetics treated with troglitazone was used to identify genes important for TZD action and therefore treatment of diabetes and insulin resistance. […]
(§2) In the second study, samples were obtained from lean, obese, and diabetic individuals before and after a hyperinsulinemic euglycemic clamp. […] The gene expression profile for each individual was determined by hybridization of cRNA to custom synthesized Affymetrix chips.
(§3) Gene expression profile differences were calculated as follows. […] The raw data was analyzed by a statistical test to remove ‘outliers’. The mean ‘average difference score’ was then calculated from the average difference scores for all individuals in a particular treatment group. Genes were determined to be changed in three different comparisons by calculating the Students t test statistic between two conditions and selecting those with t less than or equal to 0.05. […]

Endothelin A receptor = test: Gene expression profiling (Affymetrix chips) of muscle from diabetics before/after troglitazone: Endothelin A receptor transcripts; details: Endothelin A receptor mRNA, Clamp sample
Source text: as §1, §2, §3

HIOMT = test: Gene expression profiling (Affymetrix chips) of muscle from diabetics before/after troglitazone: HIOMT transcripts; details: HIOMT mRNA, Basal sample
Source text: as §1, §2, §3

PRK1 = test: Gene expression profiling (Affymetrix chips) of muscle from diabetics before/after troglitazone: PRK1 transcripts; details: PRK1 mRNA, Basal sample
Source text: as §1, §2, §3

[1] = 3 months of Troglitazone treatment

For `Cc1c(C)c2c(c(C)c1O)CCC(C)(COc1ccc(CC3SC(=O)NC3=O)cc1)O2` (centres unmarked) [Troglitazone, troglitazone], the “Fold Change (diabetic post tro/diabetic pre tro)” value (Ceramidase; [1]) was 0.68, the “Diabetic Post-Trog Mean Exp” value (Ceramidase; diabetic patients after 3 months of Troglitazone treatment (pre-Trog mean 630)) was 427 and the “Fold Change (diabetic post tro/diabetic pre tro)” value (Endothelin A receptor; [1]) was 0.52. The “Diabetic Post-Trog Mean Expr” value (Endothelin A receptor; diabetic patients after 3 months of Troglitazone treatment (pre-Trog mean 194)) was 102, the “Fold Change (diabetic post tro/diabetic pre tro)” value (HIOMT; [1]) was 1.51 and the “Diabetic Post-Trog Mean Expr” value (HIOMT; diabetic patients after 3 months of Troglitazone treatment (pre-Trog mean 518)) was 781. For the same molecule, the “Fold Change (diabetic post tro/diabetic pre tro)” value (PRK1; [1]) was 0.54 and the “Diabetic Post-Trog Mean Expr” value (PRK1; diabetic patients after 3 months of Troglitazone treatment (pre-Trog mean 1634)) was 874.
